Experimental findings from the supplement of paper PMC9938120 are described below.

Experiment in all cases: drug sensitivity score (DSS3, normalised partial AUC of % inhibition dose-response) (DSS (score)); higher = more sensitive (stronger inhibition of viability); extreme values may be limits of the assay
Experiment [1] has as its system FMOC25_1 (patient-derived low-grade serous ovarian cancer cells). Conditions: 72 h; library: FO4B; assay format: 2D, 384-well, CellTiter-Glo. Put shortly:
(§1)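 Cells were dispensed onto 384-well flat clear-bottom plates already holding compounds at five concentrations over a 10,000-fold range, using patient-derived ovarian cancer cells at passage under 10. Incubation lasted 72 h at 37 °C in 5% CO2, after which CellTiter-Glo viability data were processed in Breeze. Higher drug sensitivity scores, each a partial area under the percent-inhibition dose-response curve divided by the log of the upper asymptote, mean more sensitive cells.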

In experiment [2] the test system is FMOC09 (patient-derived high-grade serous ovarian cancer cells). The note with it: 72 h; library: FO5A; assay format: 2D, 384-well, CellTiter-Glo. The gist of the method: as §1
A general note: In ATP-based viability assays light output follows the ATP content of the culture.

Experiment [3] has as its system FMOC14 (patient-derived high-grade serous ovarian cancer cells). Conditions: 72 h; library: FO5A; assay format: 2D, 384-well, CellTiter-Glo. Put shortly: as §1
Experiment [4] deals with FMOC24 (patient-derived high-grade serous ovarian cancer cells). Conditions: 72 h; library: FO5A; assay format: 2D, 384-well, CellTiter-Glo. The gist of the method: as §1
Experiment [5] relates to FMOC22 (patient-derived mucinous ovarian cancer cells). The note with it: 72 h; library: FO5A; assay format: 2D, 384-well, CellTiter-Glo. The gist of the method: as §1
The subject of experiment [6] is FMOC25_2 (patient-derived low-grade serous ovarian cancer cells). The note with it: 72 h; library: FO5A; assay format: 2D, 384-well, CellTiter-Glo. The gist of the method:
as §1

Experiment [7] has as its system FMOC06 (patient-derived mucinous ovarian cancer cells). Conditions: 72 h; library: FO5A; assay format: 2D, 384-well, CellTiter-Glo. Put shortly:
as §1

Experiment [8] relates to FMOC02_3 (patient-derived low-grade serous ovarian cancer cells). Conditions: 72 h; library: FO5A; assay format: 2D, 384-well, CellTiter-Glo. The gist of the method:
as §1

The subject of experiment [9] is FMOC02_2 (patient-derived low-grade serous ovarian cancer cells). Conditions: 72 h; library: FO5A; assay format: 2D, 384-well, CellTiter-Glo. Put shortly:
as §1

Experiment [10] deals with FMOC03 (patient-derived mucinous ovarian cancer cells). The note with it: 72 h; library: FO5A; assay format: 2D, 384-well, CellTiter-Glo. Put shortly: as §1

Take `O=[N+]([O-])c1ccc2c(c1)S(=O)(=O)C=C2` [Stattic]: the drug sensitivity score in experiment [1] was found to be 6.3.
In [1], `O=c1ncn2nc(Sc3ccc(F)cc3F)ccc2c1-c1c(Cl)cccc1Cl` [VX 745] displayed a drug sensitivity score of 0.
In the case of `Cc1csc(-c2nnc(Nc3ccc(Oc4ncccc4-c4ccnc(N)n4)cc3)c3ccccc23)c1` [AMG-900], the drug sensitivity score in [1] came to 0.8.
For `CN(C)CCN1C(=O)c2cccc3cc(N)cc(c23)C1=O` [Amonafide], in experiment [1], the drug sensitivity score was 6.8.
In experiment [1], `CCc1c2c(nc3ccc(OC(=O)N4CCC(N5CCCCC5)CC4)cc13)-c1cc3c(c(=O)n1C2)COC(=O)[C@]3(O)CC` [Irinotecan] gave a drug sensitivity score of 5.1.
Still for that read-out and setting: the figure for `O=C(NC[C@H](O)CO)c1ccncc1Nc1ccc(I)cc1F` [Pimasertib] is 14.7; for `O=NN(CCCl)C(=O)NC1CCCCC1` [Lomustine] it is 0.
As for `Oc1ncc(N(CCCl)CCCl)c(O)n1` [Uramustine], in [1], the drug sensitivity score stood at 0.1.
Take `C#Cc1cccc(Nc2ncnc3cc(OC)c(OCCCCCCC(=O)NO)cc23)c1` [CUDC-101]: the drug sensitivity score in experiment [1] was found to be 17.
The same measure, in the same setting: for `CCn1c(=O)c(-c2cc[nH]n2)cc2c(C)nc(N)nc21` [Voxtalisib] the value was 10.6.
In [1], `CCNC(=O)C[C@@H]1N=C(c2ccc(Cl)cc2)c2cc(OC)ccc2-n2c(C)nnc21` yielded a drug sensitivity score of 3.8.
In [1], `Cc1ccc2nc(CN(CCN(Cc3nc4ccc(C)cc4[nH]3)Cc3nc4ccc(C)cc4[nH]3)Cc3nc4ccc(C)cc4[nH]3)[nH]c2c1` displayed a drug sensitivity score of 3.9.
The compound `COc1cc2c(cc1O)CC[C@@H]1[C@@H]2CC[C@]2(C)[C@@H](O)CC[C@@H]12` [2-methoxyestradiol] came in with a drug sensitivity score in experiment [1] of 4.1.
`O=C(O)CSc1cc(NS(=O)(=O)c2ccc(Br)cc2)c2ccccc2c1O` [UMI-77] displayed a drug sensitivity score in experiment [1] of 14.3.
In the case of `O=C(Cc1ccc(-c2ccc(OCCN3CCOCC3)cc2)cn1)NCc1ccccc1` [KX2-391], the drug sensitivity score in experiment [1] is 12.7.
Compound `COC1=CC(c2cc3ccccc3[nH]2)=N/C1=C\c1[nH]c(C)cc1C` [Obatoclax] displayed a drug sensitivity score in experiment [1] of 1.8.
In turn, `O=NN(CCCl)C(=O)NCCCl` [Carmustine] gave a drug sensitivity score in [1] of 0.4.
In experiment [1], `O=C(NOCC1CC1)c1ccc(F)c(F)c1Nc1ccc(I)cc1Cl` showed a drug sensitivity score of 7.5.
For the compound `O=C(Nc1ccc(-c2ccnc(Nc3ccc(N4CCOCC4)cc3)n2)cc1)C1CCCN1` (stereo not given) [XL019], the drug sensitivity score in experiment [1] came out at 0.5.
The same measure, in the same setting: the figure for `Cn1cc(-c2ccc3nnc(Sc4ccc5ncccc5c4)n3n2)cn1` [SGX-523] is 0; for `CCN1CCN(c2ccc(Nc3cc(N(C)C(=O)Nc4c(Cl)c(OC)cc(OC)c4Cl)ncn3)cc2)CC1` [NVP-BGJ398] it is 0.
`CNC(=O)c1cc(Oc2ccc(NC(=O)Nc3cc(C(C)(C)C)nn3-c3ccc4ncccc4c3)c(F)c2)ccn1` [Rebastinib]: in experiment [1], the drug sensitivity score is 0.
`CCc1nc(-c2cccc(C)c2)c(-c2ccnc(NC(=O)c3ccccc3)c2)s1` [TAK-715] showed a drug sensitivity score in experiment [1] of 0.
The compound `Cc1cc(-c2ncc(-c3cccnc3)cc2/C=C/c2ccccc2)cnc1-c1cccnc1` [Pyridoclax] registered a drug sensitivity score in experiment [1] of 5.5.
Turning to `O=S(=O)(c1cccc2cnccc12)N1CCCNCC1` [Fasudil], the drug sensitivity score in experiment [1] stood at 0.
On to `c1ccc(Cn2c(-c3ccc(OC[C@H](C4CCNCC4)n4c(-c5ccccc5)nc5ccccc54)cc3)nc3ccccc32)cc1` [deltarasin], for which the drug sensitivity score in experiment [1] is 5.5.
`CN(C)/N=N/c1[nH]cnc1C(N)=O` [Dacarbazine] gave a drug sensitivity score in experiment [1] of 0.
The compound `CC(=O)c1cnc2ccc(-c3cc(Cl)c(O)c(Cl)c3)nc2c1N[C@H]1CC[C@H](CN(C)C)CC1` [OTSSP167] had a drug sensitivity score in experiment [1] of 7.7.
On the same count and under the same terms, for `O=P1(NCCCl)OCCCN1CCCl` (stereo not given) [Ifosfamide] the value was 0; for `C[C@]12C=CC(=O)C=C1CC[C@@H]1[C@@H]2C(=O)C[C@@]2(C)[C@H]1CC[C@]2(O)C(=O)CO` [Prednisone], 0; for `C/C(=C\c1csc(C)n1)[C@@H]1C[C@@H]2O[C@]2(C)CCC[C@H](C)[C@H](O)[C@@H](C)C(=O)C(C)(C)[C@@H](O)CC(=O)O1` [Patupilone], 9.3.
As for `O=P1(N(CCCl)CCCl)NCCCO1` (stereo not given) [Cyclophosphamide], in experiment [1], the drug sensitivity score came out at 0.
Still for that read-out and setting: for `COc1ccc2c(OCc3nnc4ccc(-c5ccccc5)nn34)ccnc2c1` [AMG-208] the value was 1.3; for `Cc1c(CN2CCN(C(=O)[C@H](C)O)CC2)sc2c(N3CCOCC3)nc(-c3cnc(N)nc3)nc12` [Apitolisib], 18.1; for `CN1CCC(COc2cnc(-c3cccc(Cn4nc(-c5cccc(C#N)c5)ccc4=O)c3)nc2)CC1`, 0.
The same measure, in the same setting: for `CO[C@H]1/C=C\C=C(/C)C(=O)NC2=CC(=O)C(NCCN(C)C)=C(C[C@@H](C)C[C@H](OC)[C@H](O)[C@@H](C)/C=C(\C)[C@@H]1OC(N)=O)C2=O` [Alvespimycin] the value was 4.1; for `C=CCNC1=C2C[C@@H](C)C[C@H](OC)[C@H](O)[C@@H](C)/C=C(\C)[C@H](OC(N)=O)[C@@H](OC)/C=C\C=C(/C)C(=O)NC(=CC1=O)C2=O` [Tanespimycin], 14.6; for `Cc1cc(C)c(/C=C2\C(=O)Nc3ccccc32)[nH]1` [Semaxanib], 4.4.
In experiment [1], `COc1cc2c(Nc3ccc(Cl)c(Cl)c3F)ncnc2cc1OC[C@@H]1C[C@@H]2CN(C)C[C@@H]2C1` [XL-647] displayed a drug sensitivity score of 9.1.
`CC(C)n1nc(-c2ccc3oc(N)nc3c2)c2c(N)ncnc21` [MLN-0128]: in experiment [1], the drug sensitivity score is 21.
In experiment [1], `Cc1sc2c(c1C)C(c1ccc(Cl)cc1)=N[C@@H](CC(=O)Nc1ccc(O)cc1)c1nnc(C)n1-2` [OTX015] gave a drug sensitivity score of 6.3.
Compound `COc1ccc(C2=N[C@@H](c3ccc(Cl)cc3)[C@@H](c3ccc(Cl)cc3)N2C(=O)N2CCNC(=O)C2)c(OC(C)C)c1` [Nutlin-3] displayed a drug sensitivity score in experiment [1] of 3.5.
On the same count and under the same terms, the figure for `NC(=O)c1ccc(I)c([N+](=O)[O-])c1` [Iniparib] is 0; for `O=C(Nc1ccc(OC(F)(F)F)cc1)c1sccc1NCc1ccnc2ccccc12` [OSI-930] it is 0.
With `CC[C@@H](C(=O)[C@@H](C)[C@@H](O)[C@H](C)[C@@H]1O[C@@H]([C@@H](CC)C(=O)O)CC[C@@H]1C)[C@H]1O[C@]2(C=C[C@@H](O)[C@]3(CC[C@@](C)([C@H]4CC[C@](O)(CC)[C@H](C)O4)O3)O2)[C@H](C)C[C@@H]1C` [Salinomycin], the drug sensitivity score in [2] was determined as 16.4; in experiment [3] it was 23.3; in experiment [4] it was 26.1; in experiment [5], 10.6; in [6], 16.5; in [7], 16.6. For the same compound, the drug sensitivity score is 1.1 in experiment [8], 15.4 in [9] and 12.5 in experiment [10].
For `CO[C@H]1CC[C@H](N2C(=O)CNc3ncc(-c4ccc(C(C)(C)O)nc4)nc32)CC1` [CC-223], the drug sensitivity score in experiment [2] was determined as 3.5; in [3] it was 3.5; in [4], 2.4; in experiment [5], 3; in experiment [6], 8.6; in experiment [7] it was 5.1. The drug sensitivity score in experiment [8] was 9.2; in experiment [9], 8.6; in experiment [10], 4.
`CCN1C(=O)CNc2ncc(-c3ccc(-c4nc[nH]n4)nc3C)nc21` [CC-115]: the drug sensitivity score in [2] is 6.7; in [3] it was 8.9; in experiment [4], 6.2; in experiment [5] it was 6.3; in [6] it was 16; in [7], 10.9. Moreover, the values for the drug sensitivity score in experiment [8], in [9] and in experiment [10] were 9.5, 14.2 and 8, respectively.
For `C=CC(=O)N1CC/C(=C\c2ccc(F)c([N+](=O)[O-])c2)C(=O)/C(=C/c2ccc(F)c([N+](=O)[O-])c2)C1` [VLX1570], the drug sensitivity score was 23 in [2]; 14.8 in [3]; 15.4 in experiment [4]; 10.7 in [5]; 14.7 in [6]; 18.2 in experiment [7]. For the same compound, the drug sensitivity score worked out at 25 in [8], 22.3 in experiment [9] and 15.2 in experiment [10].
For the compound `CCN(CC)CCNC(=O)c1c(C)[nH]c(/C=C2\C(=O)Nc3ccc(-c4csc(-c5ccccc5)n4)cc32)c1C` [Amcasertib], the drug sensitivity score in experiment [2] amounted to 0.3; in experiment [3], 0.1; in experiment [4], 8.9; in experiment [5] it was 2.7; in experiment [6] it was 0.1; in experiment [7], 0.5. Also, the drug sensitivity score in experiment [8] was 0; in experiment [9] it was 1.6; in experiment [10], 1.2.
On to `CC(C)C[C@H](NC(=O)CNC(=O)c1cc(Cl)ccc1Cl)B(O)O` [Ixazomib], for which the drug sensitivity score is 6.8 in [2]; 15.3 in [3]; 16.8 in experiment [4]; 16.6 in experiment [5]; 14.5 in experiment [6]; 12.1 in experiment [7]. Besides, the drug sensitivity score was determined as 6 in experiment [8], 14.3 in experiment [9] and 15.1 in [10].
Take `Cn1nccc1Nc1nccc(-c2ccn([C@H](CO)c3ccc(Cl)c(F)c3)c(=O)c2)n1` [Ravoxertinib]: the drug sensitivity score is 1.9 in experiment [2]; 0 in experiment [3]; 5.5 in experiment [4]; 3.9 in experiment [5]; 6.3 in experiment [6]; 8.7 in experiment [7]. Besides, the figures for the drug sensitivity score in experiment [8], in experiment [9] and in experiment [10] were 8.3, 7.1 and 4.6, respectively.
As for `COc1ccc2[nH]cc(/C=C3\C(=O)Nc4ccc(NC(=O)CCN5CCCCC5)cc43)c2c1`, the drug sensitivity score amounted to 5.4 in [2]; 5.1 in experiment [3]; 12.7 in [4]; 6.1 in experiment [5]; 8.6 in experiment [6]; 6.4 in experiment [7]. Further, the drug sensitivity score in experiment [8] is 10.8; in [9], 12.7; in experiment [10] it was 7.6.
With `Cc1ccc(NS(=O)(=O)c2cccc(C#N)c2)c2[nH]cc(C#N)c12` [E7820], the drug sensitivity score in [2] was found to be 12.4; in experiment [3] it was 4.5; in [4], 16.3; in experiment [5], 10.5; in [6], 7.4; in experiment [7], 1.5. The drug sensitivity score in experiment [8] amounted to 10.1; in experiment [9] it was 4.4; in experiment [10], 3.9.
